In patent US8580784B2, “Method for treating a disease related to the glucocorticoid receptor” (Santen Pharmaceutical Co., Ltd., priority 2006, dated 2013) one finds inhibition data, which are given here for twelve compounds.

Molecules are shown by their SMILES.

By inhibition is commonly meant the drop in the measured response relative to a control, in per cent.

In the assay the target is T1, Recombinant human GR (Homo sapiens, UniProt P04150).
T1 construct: purchased Invitrogen P2816
T1 sequence (P04150 1-777): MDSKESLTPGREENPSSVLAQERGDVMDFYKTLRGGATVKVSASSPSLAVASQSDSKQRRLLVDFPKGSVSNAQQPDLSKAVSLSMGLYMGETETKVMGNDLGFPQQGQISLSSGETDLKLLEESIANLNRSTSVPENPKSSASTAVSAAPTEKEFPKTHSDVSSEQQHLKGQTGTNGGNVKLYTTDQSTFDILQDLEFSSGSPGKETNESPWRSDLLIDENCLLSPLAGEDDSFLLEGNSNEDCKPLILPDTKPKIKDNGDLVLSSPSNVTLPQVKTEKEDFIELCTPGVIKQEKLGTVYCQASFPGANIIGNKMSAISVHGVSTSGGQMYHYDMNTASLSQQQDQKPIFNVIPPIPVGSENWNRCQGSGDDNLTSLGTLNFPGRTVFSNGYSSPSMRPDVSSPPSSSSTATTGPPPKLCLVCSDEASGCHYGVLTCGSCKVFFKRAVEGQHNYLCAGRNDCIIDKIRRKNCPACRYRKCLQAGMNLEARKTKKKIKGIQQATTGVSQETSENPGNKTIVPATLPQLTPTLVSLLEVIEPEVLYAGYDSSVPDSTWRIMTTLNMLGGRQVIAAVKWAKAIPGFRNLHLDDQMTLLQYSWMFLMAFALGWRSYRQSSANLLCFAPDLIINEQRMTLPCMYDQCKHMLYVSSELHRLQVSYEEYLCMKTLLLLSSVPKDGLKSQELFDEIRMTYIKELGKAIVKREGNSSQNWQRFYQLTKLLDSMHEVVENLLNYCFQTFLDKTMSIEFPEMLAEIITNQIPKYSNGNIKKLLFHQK
The assay can be described thus: Evaluation test for binding activity to glucocorticoid receptor: receptor competitor assay by fluorescence polarization (Invitrogen GR competitor assay kit, cat No. P2816). To be noted: 20 μM test compound solution, 10 μL per well plus 5 μL 4×GS1 and 5 μL 4×GR solution; room temperature 2 to 4 hours; a ratio of 100% or more is indicated by 100%. How it is done: A detailed explanation of this matter will be described in the section of “Pharmacological Test” in Examples described below. In order to find the usefulness of the present compound as a pharmaceutical, a glucocorticoid receptor competitor assay was carried out by a fluorescence polarization method by using a glucocorticoid receptor competitor assay kit (manufactured by Invitrogen, cat No. P2816) to study the glucocorticoid receptor binding activity of the present compound.
1. Evaluation Test for Binding Activity to Glucocorticoid Receptor (hereinafter referred to as “GR”)
In order to evaluate a binding activity to GR, a receptor competitor assay was carried out by a fluorescence polarization method. In the assay, a GR competitor assay kit (manufactured by Invitrogen, cat No. P2816) was used, and a procedure was carried out according to the protocol attached to the kit. Hereinafter, the specific method will be described.
(Preparation of Reagents)
GR screening buffer: A buffer containing 10 mM potassium phosphate (pH 7.4), 20 mM sodium molybdate (Na2MoO4), 0.1 mM ethylene diamine tetraacetic acid (EDTA), 5 mM dithiothreitol (DTT), 0.1 mM stabilizing peptide and 2% dimethylsulfoxide was prepared.
4×GS1 solution: Fluormone™ GS1, which is a fluorescent glucocorticoid ligand, was diluted with GR screening buffer, whereby a 4 nM solution was prepared.
4×GR solution: Recombinant human GR was diluted with GR screening buffer, whereby a 16 nM solution was prepared.
(Preparation of Test Compound Solution)
After a test compound was dissolved in dimethylsulfoxide, the resulting solution was diluted with GR screening buffer, whereby a 20 μM test compound solution was prepared.
(Test Method and Measurement Method)
1) The test compound solution was added in an amount of 10 μL into each well of a 384-well plate, and then, 4×GS1 solution and 4×GR solution were added in an amount of 5 μL into each well, respectively.
2) The plate was incubated in a dark place at room temperature for 2 to 4 hours.
3) By using a multimode plate reader, Analyst™ HT (manufactured by LJL Biosystems), fluorescence polarization of each well was measured. As the blank, a well containing GR screening buffer in place of the test compound and 4×GS1 solution was used.
4) The same procedure as that in the above 1) to 3) was carried out except that GR screening buffer was used in place of the test compound solution, and the obtained result was taken as the negative control.
5) The same procedure as that in the above 1) to 3) was carried out except that 2 mM dexamethasone was used in place of the test compound solution, and the obtained result was taken as the positive control.
(Calculation Equation of GR Binding Ratio)
A GR binding ratio (%) was calculated from the following equation. GR binding ratio(%)=100×[1−(fluorescence polarization of test compound solution−fluorescence polarization of positive control solution)/(fluorescence polarization of negative control solution−fluorescence polarization of positive control solution)] (Test Results and Discussion)
(In fluorescence polarisation assays a small probe gives low polarisation when free and higher when bound to something large.)
As to `COc1ccccc1NCc1c(-c2ccc(OC(=O)c3ccco3)cc2OC)ccc2c1C(C)=CC(C)(C)N2` [Compound 1-1, 6-[4-(Furan-2-ylcarbonyloxy)-2-methoxyphenyl]-5-(2-methoxyphenylaminomethyl)-2,2,4-trimethyl-1,2-dihydroquioline], the inhibition at 20 µM (stock) came to 92%.
Still for that read-out and setting: in the case of `COc1ccccc1NCc1c(-c2ccc(OC(=O)c3cccnc3C)cc2OC)ccc2c1C(C)=CC(C)(C)N2` [Compound 1-2, 6-[2-Methoxy-4-(2-methylpyridin-3-ylcarbonyloxy)phenyl]-5-(2-methoxyphenylaminomethyl)-2,2,4-trimethyl-1,2-dihydroquioline] it was 100%; in that of `COc1ccccc1NCc1c(-c2ccc(OC(=O)c3ccccc3)cc2OC)ccc2c1C(C)=CC(C)(C)N2` [Compound 1-3, 6-(4-Benzoyloxy-2-methoxyphenyl)-5-(2-methoxyphenylaminomethyl)-2,2,4-trimethyl-1,2-dihydroquioline], 95%.
The same measure, in the same setting: with `COc1ccccc1NCc1c(-c2ccc(OC(=O)c3ccccc3OC)cc2OC)ccc2c1C(C)=CC(C)(C)N2` [Compound 1-4, 6-[2-Methoxy-4-(2-methoxybenzoyloxy)phenyl]-5-(2-methoxyphenylaminomethyl)-2,2,4-trimethyl-1,2-dihydroquinoline] the figure was 95%; with `COc1ccccc1NCc1c(-c2ccc(OC(=O)c3ccccc3C)cc2OC)ccc2c1C(C)=CC(C)(C)N2` [Compound 1-5, 6-[2-Methoxy-4-(2-methylbenzoyloxy)phenyl]-5-(2-methoxyphenylaminomethyl)-2,2,4-trimethyl-1,2-dihydroquinoline], 93%.
Same read-out and setting: in the case of `COc1ccccc1NCc1c(-c2ccc(OC(=O)c3ccoc3)cc2OC)ccc2c1C(C)=CC(C)(C)N2` [Compound 1-6, 6-[4-(Furan-3-ylcarbonyloxy)-2-methoxyphenyl]-5-(2-methoxyphenylaminomethyl)-2,2,4-trimethyl-1,2-dihydroquinoline] it was 97%; in that of `COc1ccccc1NCc1c(-c2ccc(OC(=O)c3ccsc3)cc2OC)ccc2c1C(C)=CC(C)(C)N2` [Compound 1-7, 5-(2-Methoxyphenylaminomethyl)-6-[2-methoxy-4-(thiophen-3-ylcarbonyloxy)phenyl]-2,2,4-trimethyl-1,2-dihydroquinoline], 95%.
For the compound `COc1ccccc1NCc1c(-c2ccc(OC(=O)c3cccnc3)cc2OC)ccc2c1C(C)=CC(C)(C)N2` [Compound 1-8, 5-(2-Methoxyphenylaminomethyl)-6-[2-methoxy-4-(pyridin-3-ylcarbonyloxy)phenyl]-2,2,4-trimethyl-1,2-dihydroquinoline], the inhibition at 20 µM came to 98%.
With `COc1cc(OC(=O)c2ccccc2Cl)ccc1-c1ccc2c(c1CNc1cc(F)ccc1C)C(C)=CC(C)(C)N2` [Compound 1-9, 6-[4-(2-Chlorobenzoyloxy)-2-methoxyphenyl]-5-(5-fluoro-2-methylphenylaminomethyl)-2,2,4-trimethyl-1,2-dihydroquinoline], the inhibition at 20 µM (stock) stood at 90%.
The same measure, in the same setting: in the case of `COc1ccccc1NCc1c(-c2ccc(OC(=O)c3ccccc3Cl)cc2OC)ccc2c1C(C)=CC(C)(C)N2` [Compound 1-10, 6-[4-(2-Chlorobenzoyloxy)-2-methoxyphenyl]-5-(2-methoxyphenylaminomethyl)-2,2,4-trimethyl-1,2-dihydroquinoline] it was 93%.
`COc1ccccc1NCc1c(-c2ccc(OC(=O)c3ccccc3F)cc2OC)ccc2c1C(C)=CC(C)(C)N2` [Compound 1-12, 6-[4-(2-Fluorobenzoyloxy)-2-methoxyphenyl]-5-(2-methoxyphenylaminomethyl)-2,2,4-trimethyl-1,2-dihydroquinoline]: the inhibition at 20 µM (stock) is 99%.
`COc1ccccc1NCc1c(-c2ccc(OC(=O)c3ccncc3)cc2OC)ccc2c1C(C)=CC(C)(C)N2` [Compound 1-13, 5-(2-Methoxyphenylaminomethyl)-6-[2-methoxy-4-(pyridin-4-ylcarbonyloxy)phenyl]-2,2,4-trimethyl-1,2-dihydroquinoline]: the inhibition at 20 µM (stock) is 100%.
